± gives the expanded uncertainty stated by the source.
What was measured:
[1] = for surface tension liquid-gas: Pendant drop shape; for mass density: 101.3 kPa, Liquid, vibrating tube
[2] = xn = mol fraction of the nth substance listed; conditions: x1 = 1; for mass density: 101.3 kPa, Liquid, vibrating tube; for surface tension liquid-gas: Pendant drop shape

`CN1CCCC1=O` [N-methylpyrrolidone] showed a surface tension liquid-gas ([1]; 277.84 K) of 42.61 ± 0.42 mN/m, a surface tension liquid-gas ([1]; 287.8 K) of 41.35 ± 0.41 mN/m and a surface tension liquid-gas ([1]; 297.81 K) of 40.25 ± 0.4 mN/m. For the same molecule, the surface tension liquid-gas ([1]; 307.85 K) was 39.1 ± 0.39 mN/m, the surface tension liquid-gas ([1]; 317.85 K) was 37.91 ± 0.38 mN/m and the surface tension liquid-gas ([1]; 327.89 K) was 36.8 ± 0.37 mN/m. The surface tension liquid-gas ([1]; 337.88 K) was 35.66 ± 0.36 mN/m.
For `CC(C)=O` [acetone], the surface tension liquid-gas ([1]; 287.81 K) was 23.94 ± 0.27 mN/m, the surface tension liquid-gas ([1]; 297.82 K) was 22.78 ± 0.26 mN/m and the surface tension liquid-gas ([1]; 307.86 K) was 21.59 ± 0.25 mN/m. It also gave a surface tension liquid-gas ([1]; 317.86 K) of 20.33 ± 0.24 mN/m and a surface tension liquid-gas ([1]; 327.88 K) of 19.01 ± 0.23 mN/m.
In the case of `C1CCCCC1` [cyclohexane], the surface tension liquid-gas ([1]; 279.33 K) is reported as 26.37 ± 0.29 mN/m, the surface tension liquid-gas ([1]; 282.82 K) is reported as 25.99 ± 0.29 mN/m and the surface tension liquid-gas ([1]; 287.81 K) is reported as 25.34 ± 0.28 mN/m. For the same molecule, the surface tension liquid-gas ([1]; 297.82 K) was 24.2 ± 0.27 mN/m, the surface tension liquid-gas ([1]; 307.86 K) was 23.02 ± 0.26 mN/m and the surface tension liquid-gas ([1]; 317.86 K) was 21.84 ± 0.25 mN/m. The surface tension liquid-gas ([1]; 327.88 K) was 20.71 ± 0.24 mN/m and the surface tension liquid-gas ([1]; 337.93 K) was 19.57 ± 0.24 mN/m.
`CN(C)C=O` [dimethylformamide] gave a surface tension liquid-gas ([1]; 277.85 K) of 38.16 ± 0.39 mN/m, a mass density ([1]; 278.15 K) of 963 ± 0.3 kg/m3 and a mass density ([1]; 283.15 K) of 958.3 ± 0.3 kg/m3. It also gave a surface tension liquid-gas ([1]; 287.81 K) of 36.96 ± 0.38 mN/m, a mass density ([1]; 288.15 K) of 953.7 ± 0.3 kg/m3 and a mass density ([1]; 293.15 K) of 949.1 ± 0.3 kg/m3. The surface tension liquid-gas ([1]; 297.82 K) was 35.83 ± 0.37 mN/m, the mass density ([1]; 298.15 K) was 944.5 ± 0.3 kg/m3 and the mass density ([1]; 303.15 K) was 939.9 ± 0.3 kg/m3. The surface tension liquid-gas ([1]; 307.86 K) was 34.65 ± 0.36 mN/m, the mass density ([1]; 308.15 K) was 935.4 ± 0.3 kg/m3 and the mass density ([1]; 313.15 K) was 930.9 ± 0.3 kg/m3. It also gave a surface tension liquid-gas ([1]; 317.86 K) of 33.37 ± 0.35 mN/m, a mass density ([1]; 318.15 K) of 926.3 ± 0.3 kg/m3 and a mass density ([1]; 323.15 K) of 921.7 ± 0.3 kg/m3. For the same molecule, the surface tension liquid-gas ([1]; 327.88 K) was 32.03 ± 0.34 mN/m, the surface tension liquid-gas ([1]; 327.89 K) was 32.03 ± 0.34 mN/m and the mass density ([1]; 328.15 K) was 917.9 ± 0.2 kg/m3. It also gave a mass density ([1]; 333.15 K) of 913.2 ± 0.2 kg/m3.
`CCCCCCC` [heptane] showed a surface tension liquid-gas ([1]; 277.93 K) of 21.73 ± 0.27 mN/m, a mass density ([1]; 278.15 K) of 696.3 ± 0.4 kg/m3 and a surface tension liquid-gas ([1]; 282.83 K) of 21.18 ± 0.26 mN/m. The mass density ([1]; 283.15 K) was 692.2 ± 0.4 kg/m3, the surface tension liquid-gas ([1]; 287.81 K) was 20.7 ± 0.26 mN/m and the mass density ([1]; 288.15 K) was 688 ± 0.4 kg/m3. The surface tension liquid-gas ([1]; 292.81 K) was 20.17 ± 0.26 mN/m, the mass density ([1]; 293.15 K) was 683.8 ± 0.4 kg/m3 and the surface tension liquid-gas ([1]; 297.82 K) was 19.63 ± 0.25 mN/m. The mass density ([1]; 298.15 K) was 679.5 ± 0.4 kg/m3, the surface tension liquid-gas ([1]; 302.83 K) was 19.15 ± 0.25 mN/m and the mass density ([1]; 303.15 K) was 675.2 ± 0.4 kg/m3. The surface tension liquid-gas ([1]; 307.86 K) was 18.68 ± 0.24 mN/m, the mass density ([1]; 308.15 K) was 670.9 ± 0.4 kg/m3 and the surface tension liquid-gas ([1]; 312.86 K) was 18.17 ± 0.24 mN/m. It also gave a mass density ([1]; 313.15 K) of 666.5 ± 0.3 kg/m3, a surface tension liquid-gas ([1]; 317.86 K) of 17.76 ± 0.24 mN/m and a mass density ([1]; 318.15 K) of 662.1 ± 0.3 kg/m3. For the same molecule, the surface tension liquid-gas ([1]; 322.86 K) was 17.22 ± 0.23 mN/m, the mass density ([1]; 323.15 K) was 657.7 ± 0.3 kg/m3 and the surface tension liquid-gas ([1]; 327.88 K) was 16.68 ± 0.23 mN/m. It also gave a mass density ([1]; 328.15 K) of 653.2 ± 0.3 kg/m3, a surface tension liquid-gas ([1]; 332.91 K) of 16.21 ± 0.23 mN/m and a mass density ([1]; 333.15 K) of 648.7 ± 0.3 kg/m3. The surface tension liquid-gas ([1]; 337.88 K) was 15.79 ± 0.22 mN/m and the surface tension liquid-gas ([1]; 342.92 K) was 15.29 ± 0.22 mN/m.
With `CCCCCCC` [heptane] + Cc1ccccc1 the mass density ([2]; 278.15 K) was 696.3 ± 0.4 kg/m3, the mass density ([2]; 283.15 K) was 692.2 ± 0.4 kg/m3 and the surface tension liquid-gas ([2]; 287.81 K) was 20.7 ± 0.26 mN/m. For the same molecule, the mass density ([2]; 288.15 K) was 688 ± 0.4 kg/m3, the mass density ([2]; 293.15 K) was 683.8 ± 0.4 kg/m3 and the surface tension liquid-gas ([2]; 297.82 K) was 19.63 ± 0.25 mN/m. The mass density ([2]; 298.15 K) was 679.5 ± 0.4 kg/m3, the mass density ([2]; 303.15 K) was 675.2 ± 0.4 kg/m3 and the surface tension liquid-gas ([2]; 307.86 K) was 18.68 ± 0.24 mN/m. The mass density ([2]; 308.15 K) was 670.9 ± 0.4 kg/m3, the mass density ([2]; 313.15 K) was 666.5 ± 0.3 kg/m3 and the surface tension liquid-gas ([2]; 317.86 K) was 17.76 ± 0.24 mN/m. For the same molecule, the mass density ([2]; 318.15 K) was 662.1 ± 0.3 kg/m3, the mass density ([2]; 323.15 K) was 657.7 ± 0.3 kg/m3 and the surface tension liquid-gas ([2]; 327.88 K) was 16.68 ± 0.23 mN/m. It also gave a mass density ([2]; 328.15 K) of 653.2 ± 0.3 kg/m3 and a mass density ([2]; 333.15 K) of 648.7 ± 0.3 kg/m3.
Work on `Cc1ccccc1` [toluene] yielded a surface tension liquid-gas ([1]; 277.85 K) of 30.11 ± 0.32 mN/m, a mass density ([1]; 278.15 K) of 880.3 ± 0.2 kg/m3 and a mass density ([1]; 283.15 K) of 875.9 ± 0.2 kg/m3. It also gave a surface tension liquid-gas ([1]; 287.81 K) of 28.93 ± 0.31 mN/m, a mass density ([1]; 288.15 K) of 871.4 ± 0.2 kg/m3 and a mass density ([1]; 293.15 K) of 866.9 ± 0.2 kg/m3. For the same molecule, the surface tension liquid-gas ([1]; 297.82 K) was 27.76 ± 0.3 mN/m, the mass density ([1]; 298.15 K) was 862.4 ± 0.2 kg/m3 and the surface tension liquid-gas ([1]; 302.83 K) was 27.17 ± 0.3 mN/m. For the same molecule, the mass density ([1]; 303.15 K) was 857.8 ± 0.2 kg/m3, the surface tension liquid-gas ([1]; 307.86 K) was 26.6 ± 0.29 mN/m and the mass density ([1]; 308.15 K) was 853.2 ± 0.2 kg/m3. The surface tension liquid-gas ([1]; 312.87 K) was 26.03 ± 0.29 mN/m, the mass density ([1]; 313.15 K) was 848.6 ± 0.2 kg/m3 and the surface tension liquid-gas ([1]; 317.86 K) was 25.46 ± 0.28 mN/m. It also gave a mass density ([1]; 318.15 K) of 843.9 ± 0.2 kg/m3, a mass density ([1]; 323.15 K) of 839.2 ± 0.2 kg/m3 and a surface tension liquid-gas ([1]; 327.88 K) of 24.29 ± 0.27 mN/m. It also gave a mass density ([1]; 328.15 K) of 834.5 ± 0.2 kg/m3, a mass density ([1]; 333.15 K) of 829.8 ± 0.2 kg/m3 and a surface tension liquid-gas ([1]; 337.88 K) of 23.22 ± 0.26 mN/m.
In the case of `Cc1ccccc1` [toluene] + CN(C)C=O, the mass density ([2]; 278.15 K) is reported as 880.3 ± 0.2 kg/m3, the mass density ([2]; 283.15 K) is reported as 875.9 ± 0.2 kg/m3 and the surface tension liquid-gas ([2]; 287.81 K) is reported as 28.93 ± 0.31 mN/m. The mass density ([2]; 288.15 K) was 871.4 ± 0.2 kg/m3, the mass density ([2]; 293.15 K) was 866.9 ± 0.2 kg/m3 and the surface tension liquid-gas ([2]; 297.82 K) was 27.76 ± 0.3 mN/m. For the same molecule, the mass density ([2]; 298.15 K) was 862.4 ± 0.2 kg/m3, the mass density ([2]; 303.15 K) was 857.8 ± 0.2 kg/m3 and the surface tension liquid-gas ([2]; 307.86 K) was 26.6 ± 0.29 mN/m. For the same molecule, the mass density ([2]; 308.15 K) was 853.2 ± 0.2 kg/m3, the mass density ([2]; 313.15 K) was 848.6 ± 0.2 kg/m3 and the surface tension liquid-gas ([2]; 317.86 K) was 25.46 ± 0.28 mN/m. It also gave a mass density ([2]; 318.15 K) of 843.9 ± 0.2 kg/m3, a mass density ([2]; 323.15 K) of 839.2 ± 0.2 kg/m3 and a surface tension liquid-gas ([2]; 327.88 K) of 24.29 ± 0.29 mN/m. For the same molecule, the mass density ([2]; 328.15 K) was 834.5 ± 0.2 kg/m3 and the mass density ([2]; 333.15 K) was 829.8 ± 0.2 kg/m3.
